What was measured:
PKCα = molecular target: T1, PKCα (Homo sapiens, UniProt P17252); test: Cell-based pull-down assay, PKCα; type: binding; details: HepG2 lysates
T1 construct: Endogenous cPKC (PKCα) and nPKC (PKCδ, PKCε and PKCμ) in HepG2 lysates were pulled down; endogenous in cells; host or cells: HepG2
Description: (§1) To identify whether ISJ and compound 7 target PKC in cells, we performed pull-down experiments using ISJ- and compound 7-coupled Sepharose beads with HepG2 cell lysates. Endogenous cPKC (PKCα) and nPKC (PKCδ, PKCε and PKCμ) in HepG2 lysates were pulled down by ISJ-coupled CNBr-activated Sepharose 4B beads (Fig. 5a).
(§2) The control beads were prepared by incubating the beads with DMSO. Proteins (500 μg) from lysed HepG2 cells were mixed with either the control beads, compound 7-coupled beads, or ISJ-coupled beads (100 μL) in reaction buffer [50 mM Tris (pH 7.5), 5 mM EDTA, 150 mM NaCl, 1 mM DTT, 0.01% NP-40, 2 μg/mL BSA, 1 mM PMSF, 1% protease inhibitor mixture]. After incubation with gentle rocking overnight at 4 °C, the beads were washed 5 times with washing buffer [50 mM Tris (pH 7.5), 5 mM EDTA, 150 mM NaCl, 1 mM DTT, 0.01% NP-40, 1 mM PMSF], and binding was visualized by western blotting.

[1] = Body weight in xenograft study; type: in vivo, BALB/c-nu nude mice; details: 5 mg/kg, tail vein, two weeks
Description: HepG2 cells were harvested and resuspended in PBS. A total of 5 × 10^6 cells were subcutaneously injected into the right flank. Tumor volume was calculated using the following formula: V = (L × W^2)/2, where L is the length and W is the width of the tumor nodules measured with vernier calipers. Once the volume of the tumors reached 75–100 mm^3, the mice were randomly divided into three groups (n = 5). The mice were treated every other day for two weeks with tail vein injections of either vehicle (5% ethanol and 2.5% polyethylene glycol in saline), compound 7, or ISJ (5 mg/kg in the vehicle). Body weights were measured before each drug injection. After the 15th day, the mice were euthanized, and the tumors were isolated, weighed and photographed.

QSG-7701 hepatocytes = test: Cell proliferation assay (CCK-8), QSG-7701 hepatocytes; type: cell-based, human; details: nonmalignant hepatocytes; mean ± SD
Description: (§3) The human HCC cell lines QGY-7703, SMMC-7721 and HepG2 and the liver cell line QSG-7701 were supplied by the Cell Resource Center, Institute of Life Sciences, Chinese Academy of Medical Science. QGY-7703, SMMC-7721 and QSG-7701 cells were cultured in 1640 medium (Gibco), and HepG2 cells were cultured in DMEM medium (Gibco) at 37 °C in moist air supplemented with 5% CO2. All media were supplemented with 10% fetal bovine serum (FBS) and 100 Units/mL of penicillin/streptomycin.
(§4) The cell viability assay was performed as previously reported using a Cell Counting Kit-8 (CCK-8; Dojindo, Kumamoto, Japan)[33][34]. The relative cell viability was presented as % inhibition and calculated using the following formula: […]

cPKC and nPKC = test: Pull-down competition with free ISJ; type: binding, human; details: free ISJ 20 μM, HepG2 lysates
Text: as §1
Figure 5 Direct interactions between ISJ and PKC isotypes. (a) Immobilized on CNBr-activated Sepharose 4B beads, ISJ directly bound to cPKC (PKCα) and nPKC (PKCδ, PKCε and PKCμ). (b) HepG2 cell lysates were incubated with ISJ-conjugated Sepharose 4B beads or with DMSO-conjugated control beads in the absence or presence of free ISJ (20 μM), and the bead-captured proteins were subjected to analysis by immunoblotting.
as §2

[2] = test system: phosphorylated c-Raf, MEK1/2 and ERK1/2; test: Western blot of MAPK phosphorylation, HepG2; type: cell-based, human; details: HepG2, 24 h
Description: Additional PKC targeting effects involved in the early response of major MAPK phosphorylation and the late response of HCC cell invasion and apoptosis were investigated. After 24 h of treatment with ISJ at the indicated concentrations, the total protein lysates from HCC cells were analyzed (Fig. 6). ISJ inhibited the phosphorylated, activated forms of c-Raf, MEK1/2 and ERK1/2 in the MAPK signaling pathway in both HepG2 and QGY-7703 cells (Fig. 6a). […] In contrast, E-cadherin expression was elevated, specifically at the highest concentration of ISJ (20 μM) (Fig. 6b). In addition, we analyzed several representative apoptotic proteins, including cleaved PARP (c-PARP), p53 and p21. […] These findings support our hypothesis that ISJ restrains HCC cell metastasis and induces HCC cell apoptosis by specifically inhibiting PKC.
The total membrane and cytosolic proteins were extracted using a Membrane and Cytosol Protein Extraction Kit (Beyotime). Extracted proteins from cells or animal tissues were separated by SDS-PAGE and transferred to polyvinylidene difluoride (PVDF) membranes (Bio-Rad). The PVDF membranes were blocked with 5% nonfat milk and incubated with primary antibodies overnight, followed by incubation with a donkey anti-rabbit or anti-mouse secondary antibody (IRDye 800, LI-COR, Biosciences). […] The intensity was quantitative with Quantity One software (Bio-Rad). […]

HepG2 cells = test: Cell proliferation assay (CCK-8), HepG2; type: cell-based, human
Description: as §3, §4

SMMC-7721 cells = test: Cell proliferation assay (CCK-8), SMMC-7721; type: cell-based, human; details: mean ± SD, at least three independent experiments
Description: as §3, §4

Isojacareubin [ISJ]
pull-down of endogenous PKCα by compound-coupled Sepharose 4B beads (PKCα): pulled down | change in body weight compared to vehicle-treated controls [1]: no significant change | IC50 (QSG-7701 hepatocytes): 47.67 ± 0.08 µM | amounts of cPKC and nPKC captured by ISJ-coupled 4B beads in presence of free compound (cPKC and nPKC): obvious decline | phosphorylated, activated forms of c-Raf, MEK1/2 and ERK1/2 [2]: inhibited | Inhibitory Ratio (%) HepG2 (HepG2 cells; 50 μM): 91.54% | IC50 (HepG2 cells; mean ± SD, at least three independent experiments): 2.45 ± 0.23 µM | IC50 (SMMC-7721 cells): 1.63 ± 0.05 µM

Source: paper PMC4526861, “Inhibition of protein kinase C by isojacareubin suppresses hepatocellular carcinoma metastasis and induces apoptosis in vitro and in vivo” (Scientific Reports, 2015)
